In PubChem BioAssay (NCI):
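Exposure lasted 48 hours, with cells grown in 96-well plates and compounds tested at five concentrations. Abbreviation: GI50, concentration required for 50% inhibition of growth. TGI denotes the concentration required for complete inhibition of growth.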

Key:
Experiment in all cases: NCI tumour cell line growth inhibition, 48 h
COLO 205 colon = tested on: COLO 205 colon
SF-295 CNS = tested on: SF-295 CNS
T-47D breast = tested on: T-47D breast
MCF7 breast = tested on: MCF7 breast
SNB-19 CNS = tested on: SNB-19 CNS
HOP-92 NSCLC = tested on: HOP-92 NSCLC
SF-539 CNS = tested on: SF-539 CNS
EKVX NSCLC = tested on: EKVX NSCLC

SMILES | GI50 (COLO 205 colon) | TGI (COLO 205 colon) | GI50 (SF-295 CNS) | TGI (SF-295 CNS) | GI50 (T-47D breast) | TGI (T-47D breast) | GI50 (MCF7 breast) | TGI (MCF7 breast) | GI50 (SNB-19 CNS) | TGI (SNB-19 CNS) | GI50 (HOP-92 NSCLC) | TGI (HOP-92 NSCLC) | GI50 (SF-539 CNS) | TGI (SF-539 CNS) | GI50 (EKVX NSCLC) | TGI (EKVX NSCLC)
CCOC(=O)C1=C(C)N(N)C(=S)NC1c1ccc(C)cc1 (stereo not given) | 33.5 µM | > 100 µM | 36.9 µM | > 100 µM | 23.1 µM | > 100 µM | 16 µM | 73.6 µM | 73 µM | > 100 µM | 0.932 µM | > 100 µM |  |  |  | 
CCOC(=O)N1CCN(C(=O)c2ccc(C(F)(F)F)nc2Nc2cc(Cl)ccc2C)CC1 | 18.9 µM | 51.6 µM | 14.6 µM | 65.3 µM | > 100 µM | > 100 µM | 14.7 µM | 43 µM | > 100 µM | > 100 µM | 10.2 µM | > 100 µM | 33.7 µM | > 100 µM | 23.2 µM | > 100 µM
Cc1ccc(Nc2nc(N)c(C(=O)c3ccc(C#N)cc3)s2)cc1 | 0.279 µM | 6.64 µM | 0.328 µM | 37.7 µM | 0.384 µM | > 100 µM | 0.369 µM | > 100 µM | 0.509 µM | 53.5 µM | 0.478 µM | 32.4 µM | 0.312 µM | 2.85 µM | 0.573 µM | > 100 µM
O=C(N/N=C\c1cc(Br)ccc1O)c1ccncc1 | 1.23 µM | 16.8 µM | 3.47 µM | > 100 µM | 2.19 µM | 62.5 µM | 1.55 µM | 7.25 µM | 5.65 µM | > 100 µM | 2.22 µM | 45.4 µM | 2.93 µM | 48.7 µM | 1.8 µM | 38.5 µM
Cc1n(Cc2ccc3ccccc3c2)cc[n+]1Cc1ccc2ccccc2c1 | 0.369 µM | 1.59 µM | 1.83 µM | 7.21 µM | 0.438 µM | 5.12 µM | 1.1 µM | 3.33 µM | 0.676 µM | 3.13 µM | 0.673 µM | 3.64 µM | 1.37 µM | 7.14 µM | 2.32 µM | 17.1 µM
COc1cc(NC(C)CCCN)c2nccc(C)c2c1OC (stereo not given) | 3.37 µM | 11.8 µM | 17 µM | 32.5 µM | 4.04 µM | 24.1 µM | 0.372 µM | 1.71 µM |  |  |  |  | 10.2 µM | 22.5 µM | 18 µM | 33.8 µM
CCN(CC)CCNCC(=O)Oc1ccc(/C=C/C(=O)CC(=O)/C=C/c2ccc(OC(=O)CNCCN(CC)CC)c(OC)c2)cc1OC | 5.06 µM | 22.8 µM | 5.55 µM | 22.2 µM | 6.1 µM | 31.6 µM | 2.58 µM | 18 µM | 4.94 µM | 20.2 µM | 3.93 µM | 33.1 µM | 2.59 µM | 6.74 µM | 2.01 µM | 5.4 µM
COc1cc(/C=C2\C(=O)Nc3ccc(F)cc32)cc(OC)c1OC | 62.7 µM | > 100 µM | > 100 µM | > 100 µM | 7.2 µM | > 100 µM | 4.73 µM | > 100 µM | 38.4 µM | > 100 µM | 5.07 µM | 42.8 µM | > 100 µM | > 100 µM | 33.1 µM | > 100 µM
CC(=O)Oc1ccc(Nc2c3ccccc3nc3ccccc23)cc1 | 0.861 µM | 2.33 µM | 0.914 µM | 7.94 µM | 1.72 µM | 7.23 µM | 0.476 µM | 10.1 µM | 1.86 µM | 11.9 µM |  |  | 1.63 µM | 6.24 µM | 3.05 µM | 25.3 µM
COC(=O)[C@@H](NC(=O)[C@@H](OC)[C@@H]1Cc2cc3cc(OC4CC(OC5CC(O)C(O)C(C)O5)C(O)C(C)O4)c(C)c(O)c3c(O)c2C(=O)[C@H]1OC1CC(OC2CC(OC3CC(C)(O)C(O)C(C)O3)C(O)C(C)O2)C(O)C(C)O1)C(C)C (stereo not given in full) | 0.137 µM | > 32.5 µM | 0.0934 µM | 2.11 µM | 0.202 µM | > 32.5 µM | 0.0538 µM | > 32.5 µM | 0.157 µM | > 32.5 µM | 0.101 µM | 1.13 µM | 0.127 µM | 0.847 µM | 0.162 µM | > 32.5 µM
COc1ccc(-c2cc(-c3cccn3C)c(C#N)c(N)n2)cc1OC | > 100 µM | > 100 µM | > 100 µM | > 100 µM | > 100 µM | > 100 µM | 94.3 µM | > 100 µM | > 100 µM | > 100 µM | 5.16 µM | > 100 µM | 82.4 µM | > 100 µM | > 100 µM | > 100 µM
CCN(CC)CC(C)(C)C(=O)/C=C/c1ccc(Cl)c(Cl)c1 | 1.7 µM | 3.34 µM | 1.74 µM | 3.22 µM | 1.52 µM | 4.03 µM | 0.959 µM | 2.8 µM | 1.82 µM | 3.54 µM | 0.418 µM | 1.85 µM | 1.85 µM | 3.54 µM | 1.69 µM | 3.1 µM
CCN(CC)CCOc1ccc(/C(=C(\C)c2ccc(F)c(OC)c2)c2ccc(Cl)cc2)cc1 | 1.82 µM | 4.51 µM | 2.61 µM | 4.98 µM | 2.41 µM | 5.86 µM | 2.17 µM | 4.74 µM | 2.83 µM | 5.17 µM | 1.3 µM | 3.68 µM | 2.45 µM | 4.74 µM | 2.46 µM | 5.39 µM
Cc1[nH][nH]c(=O)c1C=Nc1ccc(-c2nc3ccccc3[nH]2)cc1 | 19.5 µM | 48.1 µM | 18.4 µM | 42.3 µM |  |  |  | 0.612 µM | 22.6 µM | 57.3 µM | > 100 µM | > 100 µM | 22.2 µM | 41.6 µM | 19.8 µM | 51.1 µM
Cc1[nH]n(-c2cccc(Cl)c2)c(=O)c1/C=C1\C=Nc2ccc(Br)cc21 | 2 µM | 4.29 µM | 3.6 µM | 14.2 µM | 2.06 µM | 6.26 µM | 5.95 µM | > 100 µM | 5.79 µM | 25.7 µM |  |  | 4.32 µM | 16.7 µM | 5.45 µM | 73.3 µM
